Data set [1] in a line: Clinical study of eszopiclone in healthy volunteers: plasma concentration-time profiles after oral administration. Format: in vivo, human. The note with it: post-dose. On the procedure:
FIG. 1 is a plot of mean (S)-zopiclone plasma concentration-time profiles following oral administration of (S)-zopiclone.
A clinical study of eszopiclone in healthy volunteers was performed using art-recognized methodology.

The target of data set [2] is T1, α1-containing GABAA receptors (human α1, β3, γ2L) (Homo sapiens, UniProt P14867+P18507).
T1 construct: expressed in transfected cells; host or cells: Xenopus oocytes (cDNA injected, alpha:beta:gamma 1:1:3)
The data set can be described thus: Potentiation of GABA evoked currents, recombinant GABA-A receptors in Xenopus oocytes, two-electrode voltage clamp. Format: cell-based. How it is done: (§1) FIG. 2 is a plot showing the concentration-dependent potentiation of GABA evoked currents by (S)-zopiclone. For all experiments, human cDNA encoding each subunit was injected in oocytes in a stoichiometry of 1:1:3 (alpha, beta, gamma subunits). Approximately 24 hours later, GABA evoked currents (using a concentration of GABA equal to the EC10) were recorded from oocytes using a two-electrode voltage clamp on a robotic oocyte platform and a constant voltage of −80 mV. GABA was applied to the oocytes via a perfusion system for 20 seconds and then removed. An inward deflection of the current trace was recorded and subsequently compared to the responses resulting from applying the same concentration of GABA plus varying concentrations of the test compound ((S)-zopiclone). A doubling of the GABA evoked current is represented as a potentiation ratio of 1.0.
(§2) The GABA-A receptor is gated by GABA, and ligands at the benzodiazepine site potentiate GABA-evoked currents. It is well-established in the scientific literature that classical benzodiazepines potentiate GABA evoked chloride currents through GABA-A receptors. The efficacies of classical benzodiazepines can be described as “full modulators” referring to their ability to increase the chloride currents induced by sub-maximal GABA concentrations. The action of (S)-zopiclone on GABA-A receptors was evaluated by examining their effects on electrophysiological recordings in a recombinant expression system.
(§3) Recombinant GABA-A receptors were expressed in Xenopus oocytes by injecting cDNA encoding the human β3, γ2L, and each of α1, α2, α3, or α5 subunits in turn to assemble functional channels. Channel activity was measured using two-electrode voltage clamp in whole cell configuration on a robotic workstation. […] The potentiation ratio was then measured as the fold-increase in current generated by a (S)-zopiclone plus an EC10 of GABA, compared to the current generated by just the EC10 of GABA alone. These potentiation ratios were measured at a range of (S)-zopiclone concentrations to generate a subsequent concentration response curve at each of the subtypes using between 2 and 7 oocytes. […]
(§4) For all experiments, human cDNA encoding each subunit was injected in oocytes in a stoichiometry of 1:1:3 (alpha, beta, gamma subunits). Approximately 24 hours later, GABA evoked currents (using a concentration of GABA equal to the EC10) were recorded from oocytes using a two-electrode voltage clamp on a robotic oocyte platform and a constant voltage of −80 mV. […] An inward deflection of the current trace was recorded and subsequently compared to the responses resulting from applying the same concentration of GABA plus varying concentrations of the test compound [(S)-zopiclone]. […]

Data set [3] concerns the target T2, α2-containing GABAA receptors (human α2, β3, γ2L) (Homo sapiens, UniProt P18507+P47869).
T2 construct: expressed in transfected cells; host or cells: Xenopus oocytes (cDNA injected, alpha:beta:gamma 1:1:3)
The data set is described as above. The class given is cell-based. How it is done:
as §1, §2, §3, §4

The target in data set [4] is T3, α3-containing GABAA receptors (human α3, β3, γ2L) (Homo sapiens, UniProt P18507+P34903).
T3 construct: expressed in transfected cells; host or cells: Xenopus oocytes (cDNA injected, alpha:beta:gamma 1:1:3)
Described as above. Format: cell-based. How it is done: as §1, §2, §3, §4

Data set [5] addresses T4, α5-containing GABAA receptors (human α5, β3, γ2L) (Homo sapiens, UniProt P18507+P31644).
T4 construct: expressed in transfected cells; host or cells: Xenopus oocytes (cDNA injected, alpha:beta:gamma 1:1:3)
The description is as above. Format: cell-based. On the procedure:
as §1, §2, §3, §4

T2 sequence (P47869 29-451): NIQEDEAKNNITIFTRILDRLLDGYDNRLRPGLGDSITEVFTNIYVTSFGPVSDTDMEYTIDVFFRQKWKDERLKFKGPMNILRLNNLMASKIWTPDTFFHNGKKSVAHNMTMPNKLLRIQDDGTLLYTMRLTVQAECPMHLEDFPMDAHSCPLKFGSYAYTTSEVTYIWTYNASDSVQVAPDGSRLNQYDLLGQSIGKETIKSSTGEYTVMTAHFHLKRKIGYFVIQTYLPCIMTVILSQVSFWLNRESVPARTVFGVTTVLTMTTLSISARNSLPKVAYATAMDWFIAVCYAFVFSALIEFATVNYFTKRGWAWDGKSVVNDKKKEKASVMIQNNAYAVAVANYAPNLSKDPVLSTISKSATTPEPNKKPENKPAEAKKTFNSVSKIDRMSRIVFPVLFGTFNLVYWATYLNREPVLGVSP
T2 sequence (P28472 26-473 partner): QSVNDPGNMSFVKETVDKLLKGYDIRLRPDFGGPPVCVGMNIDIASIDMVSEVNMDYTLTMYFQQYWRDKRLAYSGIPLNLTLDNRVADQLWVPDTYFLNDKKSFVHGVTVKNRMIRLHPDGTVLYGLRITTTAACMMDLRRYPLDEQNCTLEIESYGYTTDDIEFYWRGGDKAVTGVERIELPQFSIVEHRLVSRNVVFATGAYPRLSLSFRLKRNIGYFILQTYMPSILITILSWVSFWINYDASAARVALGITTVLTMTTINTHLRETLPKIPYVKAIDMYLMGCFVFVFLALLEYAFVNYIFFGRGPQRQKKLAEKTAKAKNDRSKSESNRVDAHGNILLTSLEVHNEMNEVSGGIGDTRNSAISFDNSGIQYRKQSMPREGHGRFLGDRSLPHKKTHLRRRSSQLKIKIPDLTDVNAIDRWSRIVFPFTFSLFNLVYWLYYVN
T2 sequence (P18507 40-475): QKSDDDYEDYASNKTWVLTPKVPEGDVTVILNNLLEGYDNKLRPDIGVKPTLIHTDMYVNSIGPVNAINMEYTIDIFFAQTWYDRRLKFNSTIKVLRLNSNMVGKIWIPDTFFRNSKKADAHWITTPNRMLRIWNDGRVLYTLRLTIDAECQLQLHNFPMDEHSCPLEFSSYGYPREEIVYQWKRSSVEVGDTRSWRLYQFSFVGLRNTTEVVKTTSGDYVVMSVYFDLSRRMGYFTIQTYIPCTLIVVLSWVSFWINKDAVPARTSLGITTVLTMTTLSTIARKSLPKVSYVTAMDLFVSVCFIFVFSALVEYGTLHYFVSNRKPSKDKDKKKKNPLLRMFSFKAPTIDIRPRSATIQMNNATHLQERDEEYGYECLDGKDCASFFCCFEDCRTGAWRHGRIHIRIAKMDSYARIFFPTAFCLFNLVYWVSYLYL
T3 sequence (P34903 29-492): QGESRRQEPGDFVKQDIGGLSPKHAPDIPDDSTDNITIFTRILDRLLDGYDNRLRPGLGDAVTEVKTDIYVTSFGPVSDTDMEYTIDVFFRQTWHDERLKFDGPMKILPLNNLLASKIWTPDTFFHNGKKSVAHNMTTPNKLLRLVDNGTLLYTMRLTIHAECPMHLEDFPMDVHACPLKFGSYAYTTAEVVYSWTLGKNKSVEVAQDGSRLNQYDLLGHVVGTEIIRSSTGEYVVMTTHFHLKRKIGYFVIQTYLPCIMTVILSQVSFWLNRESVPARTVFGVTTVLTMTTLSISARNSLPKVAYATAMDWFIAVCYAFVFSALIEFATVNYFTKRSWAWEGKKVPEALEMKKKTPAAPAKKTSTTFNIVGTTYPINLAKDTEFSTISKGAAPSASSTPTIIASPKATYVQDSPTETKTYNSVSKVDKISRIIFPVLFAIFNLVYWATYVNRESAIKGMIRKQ
T3 sequence (P28472 26-473 partner): as the sequence (P28472 26-473 partner) above
T3 sequence (P18507 40-475): as the sequence (P18507 40-475) above
T4 sequence (P31644 32-462): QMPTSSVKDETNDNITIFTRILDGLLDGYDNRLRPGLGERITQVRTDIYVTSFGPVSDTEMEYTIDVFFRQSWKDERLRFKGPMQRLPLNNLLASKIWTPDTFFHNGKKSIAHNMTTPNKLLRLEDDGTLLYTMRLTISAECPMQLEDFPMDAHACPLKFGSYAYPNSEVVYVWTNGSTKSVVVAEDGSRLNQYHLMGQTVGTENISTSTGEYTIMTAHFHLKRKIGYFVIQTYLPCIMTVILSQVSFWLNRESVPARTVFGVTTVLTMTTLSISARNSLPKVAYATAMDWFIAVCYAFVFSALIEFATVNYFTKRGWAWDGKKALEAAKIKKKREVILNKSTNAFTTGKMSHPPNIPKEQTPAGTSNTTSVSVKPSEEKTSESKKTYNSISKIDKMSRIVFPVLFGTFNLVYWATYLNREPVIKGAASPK
T4 sequence (P28472 26-473 partner): as the sequence (P28472 26-473 partner) above
T4 sequence (P18507 40-475): as the sequence (P18507 40-475) above
T1 sequence (P14867 28-456): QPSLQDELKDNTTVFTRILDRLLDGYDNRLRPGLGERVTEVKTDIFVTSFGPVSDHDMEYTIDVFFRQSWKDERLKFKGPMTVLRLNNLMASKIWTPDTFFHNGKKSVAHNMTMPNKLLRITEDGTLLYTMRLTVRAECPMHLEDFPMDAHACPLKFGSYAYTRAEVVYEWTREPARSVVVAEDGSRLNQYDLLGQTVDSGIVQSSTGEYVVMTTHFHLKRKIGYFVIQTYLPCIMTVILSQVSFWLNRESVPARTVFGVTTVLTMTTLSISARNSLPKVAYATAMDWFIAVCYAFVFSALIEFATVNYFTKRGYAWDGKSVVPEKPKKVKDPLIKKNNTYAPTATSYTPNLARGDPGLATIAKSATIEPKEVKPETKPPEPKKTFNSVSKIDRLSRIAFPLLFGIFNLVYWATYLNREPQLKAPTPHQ
T1 sequence (P28472 26-473 partner): as the sequence (P28472 26-473 partner) above
T1 sequence (P18507 40-475): as the sequence (P18507 40-475) above

Take `CN1CCN(C(=O)O[C@H]2c3nccnc3C(=O)N2c2ccc(Cl)cn2)CC1` [Eszopiclone, (+)-(5S)-6-(chloropyridin-2-yl)-7-oxo-6,7-dihydro-5H-pyrrolo[3,4-b]pyrazin-5-yl 4-methyl-piperazine-1-carboxylate]: the entries for the “time of maximum mean (S)-zopiclone plasma concentrations” value in data set [1] (fasted conditions) and in data set [1] (fed conditions) were 0.5 to 1.5 h and 2 to 3 h, respectively. In addition, the EC50 in data set [2] stood at 30 nM; in data set [3] it was 100 nM; in data set [4] it was 250 nM; in data set [5] it was 40 nM.
